Reference: ChEMBL document CHEMBL1201862, “PubChem BioAssay data set” (2004)
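Results reflect a 48-hour exposure of cells in 96-well plates to compound at five concentrations. GI50 is the concentration that inhibits growth by half.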 Calls of active or inactive are those of the source. Cut-off read from the data, not from the text of the source: active = GI50 up to about 1.1 µM and inactive = higher.

Key:
Test in all cases: NCI anticancer screen, dose series, 48 h
786-0 = tested on: 786-0
HCC 2998 = tested on: HCC 2998
HCT-116 = tested on: HCT-116
HCT-15 = tested on: HCT-15
HT-29 = tested on: HT-29
KM12 = tested on: KM12
LOX IMVI = tested on: LOX IMVI
M14 = tested on: M14
MCF7 = tested on: MCF7
OVCAR-3 = tested on: OVCAR-3
OVCAR-5 = tested on: OVCAR-5
RPMI-8226 = tested on: RPMI-8226
SF-539 = tested on: SF-539
SK-MEL-5 = tested on: SK-MEL-5
SN12C = tested on: SN12C
SW-620 = tested on: SW-620
TK-10 = tested on: TK-10
U-251 = tested on: U-251
UACC-257 = tested on: UACC-257

| Structure (SMILES) | GI50 (786-0) | GI50 (HCC 2998) | GI50 (HCT-116) | GI50 (HCT-15) [µM] | GI50 (HT-29) | GI50 (KM12) | GI50 (LOX IMVI) | GI50 (M14) | GI50 (MCF7) | GI50 (OVCAR-3) | GI50 (OVCAR-5) | GI50 (RPMI-8226) | GI50 (SF-539) | GI50 (SK-MEL-5) | GI50 (SN12C) | GI50 (SW-620) | GI50 (TK-10) | GI50 (U-251) | GI50 (UACC-257) |
| --- | --- | --- | --- | --- | --- | --- | --- | --- | --- | --- | --- | --- | --- | --- | --- | --- | --- | --- | --- |
| COc1c(O)cc2c(c1O)C1O[C@H](CO)C(O)[C@H](O)[C@H]1OC2=O (stereo partly specified) | > 100 µM (inactive) | > 100 µM (inactive) | > 100 µM (inactive) | > 100 | > 100 µM (inactive) | > 100 µM (inactive) | > 100 µM (inactive) | > 100 µM (inactive) | > 100 µM (inactive) | > 100 µM (inactive) | > 100 µM (inactive) | > 100 µM (inactive) | > 100 µM (inactive) | > 100 µM (inactive) | > 100 µM (inactive) | > 100 µM (inactive) | > 100 µM (inactive) | > 100 µM (inactive) | > 100 µM (inactive) |
| NS(=O)(=O)c1ccc(/N=N/c2nc3[nH]cnc(=S)c3[nH]2)cc1 | 0.507 µM (active) | 0.682 µM (active) | 0.568 µM (active) | 2.09 | 1.34 µM (inactive) | 4.1 µM (inactive) | 0.236 µM (active) | 0.369 µM (active) | 0.944 µM (active) | 1.22 µM (inactive) | 0.759 µM (active) | 0.31 µM (active) | 3.92 µM (inactive) | 5.36 µM (inactive) | 1.87 µM (inactive) | 2.29 µM (inactive) | 0.474 µM (active) | 6.24 µM (inactive) | 2.94 µM (inactive) |
| C#CCOCC12C=CC(O1)C1C(=O)OCC12 (stereo unspecified) | > 100 µM (inactive) | > 100 µM (inactive) | > 100 µM (inactive) | > 100 | > 100 µM (inactive) | > 100 µM (inactive) | > 100 µM (inactive) | > 100 µM (inactive) | > 100 µM (inactive) | > 100 µM (inactive) | > 100 µM (inactive) | > 100 µM (inactive) | > 100 µM (inactive) | > 100 µM (inactive) | > 100 µM (inactive) | > 100 µM (inactive) | > 100 µM (inactive) | > 100 µM (inactive) | > 100 µM (inactive) |
| c1ccc(/N=C2\SC(c3ccccc3)CN2C23CC4CC(CC(C4)C2)C3)cc1 (stereo unspecified) | > 100 µM (inactive) | > 100 µM (inactive) | > 100 µM (inactive) | > 100 | > 100 µM (inactive) | > 100 µM (inactive) | > 100 µM (inactive) | > 100 µM (inactive) | > 100 µM (inactive) | > 100 µM (inactive) | > 100 µM (inactive) | > 100 µM (inactive) | > 100 µM (inactive) | > 100 µM (inactive) | > 100 µM (inactive) | > 100 µM (inactive) | > 100 µM (inactive) | > 100 µM (inactive) | > 100 µM (inactive) |
| CC(C)/C(Cl)=N\OC(=O)Nc1ccc(F)cc1F | 3.9 µM (inactive) | 18.3 µM (inactive) | 3.78 µM (inactive) | 7.67 | 3.82 µM (inactive) | 17.7 µM (inactive) | 1.66 µM (inactive) | 2.98 µM (inactive) | 3.43 µM (inactive) | 2.68 µM (inactive) | 17.4 µM (inactive) | 4.69 µM (inactive) | 15.8 µM (inactive) | 14.3 µM (inactive) | 6.78 µM (inactive) | 1.78 µM (inactive) | 5.19 µM (inactive) | 18 µM (inactive) | 14.1 µM (inactive) |
| CC(=O)O[C@H]1C(=O)[C@@]2(C)[C@H]([C@H](OC(=O)c3ccccc3)[C@]3(O)C[C@H](OC(=O)[C@H](O)[C@@H](NC(=O)OC(C)(C)C)c4ccco4)C(C)=C1C3(C)C)[C@]1(OC(C)=O)CO[C@@H]1C[C@@H]2O | 0.00614 µM (active) | < 0.005 µM (active) | < 0.005 µM (active) | 0.00948 | < 0.005 µM (active) | < 0.005 µM (active) | 0.00546 µM (active) | 0.0794 µM (active) | < 0.005 µM (active) | 0.00769 µM (active) | 0.00724 µM (active) | < 0.005 µM (active) | 0.00553 µM (active) | < 0.005 µM (active) | < 0.005 µM (active) | < 0.005 µM (active) | 0.0116 µM (active) | 0.00661 µM (active) | 11.1 µM (inactive) |
| C[C@H](CCC(=O)O)[C@H]1CC[C@@]2(C)[C@@H]3C(=O)C[C@H]4C(C)(C)[C@@H](O)CC[C@]4(C)[C@H]3C(=O)C[C@]12C | > 100 µM (inactive) | > 100 µM (inactive) | > 100 µM (inactive) | > 100 | > 100 µM (inactive) | > 100 µM (inactive) | > 100 µM (inactive) | > 100 µM (inactive) | > 100 µM (inactive) | > 100 µM (inactive) | > 100 µM (inactive) | > 100 µM (inactive) | > 100 µM (inactive) | > 100 µM (inactive) | > 100 µM (inactive) | > 100 µM (inactive) | > 100 µM (inactive) | > 100 µM (inactive) | > 100 µM (inactive) |
| CC1OC(OC2C(O)COC(OC3C(C)OC(OC4C(OC(=O)[C@]56CCC(C)(C)C[C@@H]5C5=CCC7[C@@]8(C)C[C@H](O)[C@H](OC9OC(CO)C(O)C(OC%10OC(CO)C(O)C(O)C%10O)C9O)[C@@](C)(CO)[C@@H]8CC[C@@]7(C)[C@]5(C)CC6)OCC(O)C4O)C(O)C3O)C2O)C(O)C(O)C1O (stereo partly specified) | 16.1 µM (inactive) | 16.2 µM (inactive) | 17.7 µM (inactive) | 19.7 | 17.2 µM (inactive) | 18.8 µM (inactive) | 18 µM (inactive) | 13 µM (inactive) | 16.4 µM (inactive) | 14.9 µM (inactive) | 12.2 µM (inactive) | 18.3 µM (inactive) | 18.4 µM (inactive) | 16 µM (inactive) | 10.6 µM (inactive) | 14.5 µM (inactive) | 18.8 µM (inactive) | 17.5 µM (inactive) | 18.3 µM (inactive) |
| COC(=O)C1=CSC2(S1)C(C(=O)OC)=CSc1c2ss/c1=N\c1ccccc1 (stereo unspecified) | 1.49 µM (inactive) | 1.72 µM (inactive) | 1.83 µM (inactive) | 1.74 | 2.48 µM (inactive) | 2.68 µM (inactive) | 1.67 µM (inactive) | 2.02 µM (inactive) | 3.79 µM (inactive) | 3.24 µM (inactive) | 3.66 µM (inactive) | 0.497 µM (active) | 1.38 µM (inactive) | 2.53 µM (inactive) | 1.88 µM (inactive) | 2.51 µM (inactive) | 2.7 µM (inactive) | 2.4 µM (inactive) | 2.43 µM (inactive) |
| S=C1N=C(Cl)/C(=C\c2ccccc2)N1 | > 100 µM (inactive) | 1.06 µM (active) | > 100 µM (inactive) | > 100 | > 100 µM (inactive) | > 87.7 µM (inactive) | > 100 µM (inactive) | > 100 µM (inactive) | > 100 µM (inactive) | > 100 µM (inactive) | > 100 µM (inactive) | > 100 µM (inactive) | > 100 µM (inactive) | > 100 µM (inactive) | > 100 µM (inactive) | > 100 µM (inactive) | > 100 µM (inactive) | > 100 µM (inactive) | > 100 µM (inactive) |
| Cc1cc(C)nc(NS(=O)(=O)c2ccc(Nc3c4ccccc4nc4ccc(C(=O)Nc5ccc(S(N)(=O)=O)cc5)cc34)cc2)n1 | > 100 µM (inactive) | > 100 µM (inactive) | > 100 µM (inactive) | > 100 | > 100 µM (inactive) | > 100 µM (inactive) | 50.6 µM (inactive) | > 100 µM (inactive) | > 100 µM (inactive) | > 100 µM (inactive) | > 100 µM (inactive) | 77.4 µM (inactive) | > 100 µM (inactive) | 72.6 µM (inactive) | > 100 µM (inactive) | > 100 µM (inactive) | > 100 µM (inactive) | 66.4 µM (inactive) | > 100 µM (inactive) |
| O=c1[nH]nc(-c2ccccc2)c2[nH]c3c(c12)CCCc1ccccc1-3 | 14.2 µM (inactive) | 14.8 µM (inactive) | 13.2 µM (inactive) | 2.34 | 11.3 µM (inactive) | 10.2 µM (inactive) | 16.5 µM (inactive) | 16.8 µM (inactive) | 19.6 µM (inactive) | 19.3 µM (inactive) | 18.7 µM (inactive) | 11.5 µM (inactive) | 17.2 µM (inactive) | 12.4 µM (inactive) | 16.6 µM (inactive) | 19.1 µM (inactive) | 19.4 µM (inactive) | 11.4 µM (inactive) | 18.7 µM (inactive) |
| C=C1C[C@@H](O)[C@@H](Br)C(C)(C)[C@]12CCC(C)(Cl)C(Br)C2 (stereo partly specified) | 25.9 µM (inactive) | 13.2 µM (inactive) | 32.3 µM (inactive) | 35.1 | 29 µM (inactive) | 0.929 µM (active) | 21.3 µM (inactive) | 34 µM (inactive) | 25.1 µM (inactive) | 15.7 µM (inactive) | 0.736 µM (active) | 34 µM (inactive) | 16.8 µM (inactive) | 7.71 µM (inactive) | 18.8 µM (inactive) | 39.9 µM (inactive) | 1.58 µM (inactive) | 24.4 µM (inactive) | 21.6 µM (inactive) |
| CCCCCCCCCCCCCCCC(=O)Nc1ccn(C2CCC(COP(=O)(O)OCC3OC(n4cc(F)c(=O)[nH]c4=O)CC3OC(C)=O)O2)c(=O)n1 (stereo unspecified) | 5.14 µM (inactive) | 3.01 µM (inactive) | 8.04 µM (inactive) | 24.9 | 11.2 µM (inactive) | 16.6 µM (inactive) | 7.1 µM (inactive) | 13.7 µM (inactive) | 2.28 µM (inactive) | 19.4 µM (inactive) | 34 µM (inactive) | 2.88 µM (inactive) | 1.03 µM (active) | 13.5 µM (inactive) | 13.1 µM (inactive) | 16.9 µM (inactive) | 24.4 µM (inactive) | 12.1 µM (inactive) | 14.7 µM (inactive) |
